Tests used:
Test in all cases: radiometric filter-binding kinase assay
[1] = target: CHEK2 (human) (UniProt O96017)
[2] = target: CaMK1 (human) (UniProt Q14012)
[3] = target: DYRK1A (human) (UniProt Q13627)
[4] = target: GCK (human) (UniProt Q12851)
[5] = target: HIPK1 (human) (UniProt Q86Z02)
[6] = target: HIPK3 (human) (UniProt Q9H422)
[7] = target: IGF1R (human) (UniProt P08069)
[8] = target: IKBKB (human) (UniProt O14920)
[9] = target: IKBKE (human) (UniProt Q14164)
[10] = target: INSR (human) (UniProt P06213)
Chain of INSR (human) (P06213 whole entry, looked up): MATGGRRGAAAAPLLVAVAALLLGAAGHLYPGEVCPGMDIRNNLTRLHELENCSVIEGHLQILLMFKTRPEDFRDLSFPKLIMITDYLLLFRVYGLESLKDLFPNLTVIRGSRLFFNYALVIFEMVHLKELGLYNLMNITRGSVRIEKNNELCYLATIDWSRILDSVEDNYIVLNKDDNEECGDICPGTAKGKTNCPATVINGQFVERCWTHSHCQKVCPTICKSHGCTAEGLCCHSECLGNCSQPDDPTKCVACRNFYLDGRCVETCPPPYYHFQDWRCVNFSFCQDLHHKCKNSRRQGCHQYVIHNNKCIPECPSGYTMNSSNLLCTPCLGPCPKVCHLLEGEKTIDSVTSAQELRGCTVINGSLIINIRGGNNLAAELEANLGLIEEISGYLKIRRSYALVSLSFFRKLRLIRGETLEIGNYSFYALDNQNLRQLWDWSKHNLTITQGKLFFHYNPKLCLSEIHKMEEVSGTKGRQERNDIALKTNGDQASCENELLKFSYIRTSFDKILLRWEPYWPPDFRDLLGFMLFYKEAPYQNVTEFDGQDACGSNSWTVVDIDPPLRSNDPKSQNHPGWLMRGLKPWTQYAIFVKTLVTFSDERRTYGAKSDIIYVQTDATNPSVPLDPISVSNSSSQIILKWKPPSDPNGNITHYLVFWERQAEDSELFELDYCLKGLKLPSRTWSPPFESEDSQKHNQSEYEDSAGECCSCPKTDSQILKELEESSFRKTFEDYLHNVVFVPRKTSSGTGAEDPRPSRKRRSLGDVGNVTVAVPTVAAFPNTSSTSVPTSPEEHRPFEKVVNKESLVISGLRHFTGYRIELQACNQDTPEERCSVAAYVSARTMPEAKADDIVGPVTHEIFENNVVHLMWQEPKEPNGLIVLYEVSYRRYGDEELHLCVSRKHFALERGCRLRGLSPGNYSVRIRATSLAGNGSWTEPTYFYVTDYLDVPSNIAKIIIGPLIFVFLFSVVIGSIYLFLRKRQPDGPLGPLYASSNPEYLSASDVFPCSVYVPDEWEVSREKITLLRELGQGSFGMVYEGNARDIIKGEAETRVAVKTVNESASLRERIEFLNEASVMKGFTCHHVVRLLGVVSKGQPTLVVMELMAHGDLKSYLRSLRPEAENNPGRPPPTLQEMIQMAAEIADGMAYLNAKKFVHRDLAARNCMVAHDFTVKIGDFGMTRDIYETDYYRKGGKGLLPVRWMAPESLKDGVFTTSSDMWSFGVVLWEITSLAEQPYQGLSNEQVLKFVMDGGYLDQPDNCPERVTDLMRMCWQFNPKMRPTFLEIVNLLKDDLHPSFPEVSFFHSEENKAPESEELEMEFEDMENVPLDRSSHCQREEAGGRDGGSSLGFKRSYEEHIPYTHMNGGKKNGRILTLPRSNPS

[11] = target: INSRR (human) (UniProt P14616)
Chain of INSRR (human) (P14616 whole entry, looked up): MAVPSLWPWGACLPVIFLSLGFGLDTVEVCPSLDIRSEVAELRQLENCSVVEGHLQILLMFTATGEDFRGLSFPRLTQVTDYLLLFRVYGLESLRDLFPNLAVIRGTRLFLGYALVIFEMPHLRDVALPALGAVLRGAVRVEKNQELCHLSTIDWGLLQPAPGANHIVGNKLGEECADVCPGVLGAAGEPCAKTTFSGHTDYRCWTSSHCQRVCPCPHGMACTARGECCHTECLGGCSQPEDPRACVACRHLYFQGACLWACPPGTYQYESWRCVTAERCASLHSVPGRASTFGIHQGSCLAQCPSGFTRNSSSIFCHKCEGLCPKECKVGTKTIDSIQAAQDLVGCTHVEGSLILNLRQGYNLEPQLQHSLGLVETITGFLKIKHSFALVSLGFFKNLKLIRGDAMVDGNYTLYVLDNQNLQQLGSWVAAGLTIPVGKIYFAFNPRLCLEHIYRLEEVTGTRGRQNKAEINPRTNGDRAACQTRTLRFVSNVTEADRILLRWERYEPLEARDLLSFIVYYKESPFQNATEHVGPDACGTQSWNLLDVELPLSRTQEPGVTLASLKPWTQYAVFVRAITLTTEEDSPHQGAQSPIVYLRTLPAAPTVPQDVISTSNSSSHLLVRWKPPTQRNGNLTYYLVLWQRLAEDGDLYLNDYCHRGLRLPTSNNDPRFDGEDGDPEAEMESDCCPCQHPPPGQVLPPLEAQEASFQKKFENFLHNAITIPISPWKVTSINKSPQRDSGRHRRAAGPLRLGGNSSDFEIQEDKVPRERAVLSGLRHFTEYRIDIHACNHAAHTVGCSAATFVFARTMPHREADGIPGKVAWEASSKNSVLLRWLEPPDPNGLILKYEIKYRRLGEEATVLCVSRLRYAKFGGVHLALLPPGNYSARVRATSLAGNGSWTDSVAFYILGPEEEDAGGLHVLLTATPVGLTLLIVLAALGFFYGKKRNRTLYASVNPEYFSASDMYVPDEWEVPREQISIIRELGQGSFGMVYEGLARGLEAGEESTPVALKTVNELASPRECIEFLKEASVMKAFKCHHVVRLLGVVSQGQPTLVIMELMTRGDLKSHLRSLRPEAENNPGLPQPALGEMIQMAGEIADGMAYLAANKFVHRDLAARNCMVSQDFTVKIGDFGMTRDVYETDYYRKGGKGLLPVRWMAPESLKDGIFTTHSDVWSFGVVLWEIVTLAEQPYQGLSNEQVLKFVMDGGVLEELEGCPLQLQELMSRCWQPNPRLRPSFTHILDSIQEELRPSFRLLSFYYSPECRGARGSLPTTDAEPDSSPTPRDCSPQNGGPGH

[12] = target: MAPK3 (human) (UniProt P27361)
Chain of MAPK3 (human) (P27361 whole entry, looked up): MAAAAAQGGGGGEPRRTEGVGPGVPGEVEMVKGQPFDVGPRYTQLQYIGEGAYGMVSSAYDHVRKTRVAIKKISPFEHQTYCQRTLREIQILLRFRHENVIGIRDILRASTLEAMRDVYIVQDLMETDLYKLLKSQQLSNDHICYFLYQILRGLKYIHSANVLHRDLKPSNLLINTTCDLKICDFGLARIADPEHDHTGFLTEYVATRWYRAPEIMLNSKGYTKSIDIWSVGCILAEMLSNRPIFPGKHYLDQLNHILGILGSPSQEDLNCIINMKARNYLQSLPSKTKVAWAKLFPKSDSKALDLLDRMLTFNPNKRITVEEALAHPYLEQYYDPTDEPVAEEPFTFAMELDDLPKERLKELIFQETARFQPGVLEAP

[13] = target: MAPKAPK2 (human) (UniProt P49137)
[14] = target: MARK3 (human) (UniProt P27448)
[15] = tested on: PAK2 (human), Q13177 [T402E]
[16] = target: PIM2 (human) (UniProt Q9P1W9)
Chain of PIM2 (human) (Q9P1W9 whole entry, looked up): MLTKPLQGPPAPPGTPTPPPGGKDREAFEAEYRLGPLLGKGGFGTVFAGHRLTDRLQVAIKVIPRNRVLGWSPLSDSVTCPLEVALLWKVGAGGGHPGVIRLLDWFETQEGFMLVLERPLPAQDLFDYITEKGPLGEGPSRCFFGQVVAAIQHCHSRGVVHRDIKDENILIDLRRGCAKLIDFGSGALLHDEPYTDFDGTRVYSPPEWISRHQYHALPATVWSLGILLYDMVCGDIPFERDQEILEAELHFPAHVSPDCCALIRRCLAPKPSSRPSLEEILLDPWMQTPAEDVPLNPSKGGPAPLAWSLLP

[17] = target: PKN2 (human) (UniProt Q16513)
[18] = target: SRC (human) (UniProt P12931)
[19] = target: SRPK1 (human) (UniProt Q96SB4)
Chain of SRPK1 (human) (Q96SB4 whole entry, looked up): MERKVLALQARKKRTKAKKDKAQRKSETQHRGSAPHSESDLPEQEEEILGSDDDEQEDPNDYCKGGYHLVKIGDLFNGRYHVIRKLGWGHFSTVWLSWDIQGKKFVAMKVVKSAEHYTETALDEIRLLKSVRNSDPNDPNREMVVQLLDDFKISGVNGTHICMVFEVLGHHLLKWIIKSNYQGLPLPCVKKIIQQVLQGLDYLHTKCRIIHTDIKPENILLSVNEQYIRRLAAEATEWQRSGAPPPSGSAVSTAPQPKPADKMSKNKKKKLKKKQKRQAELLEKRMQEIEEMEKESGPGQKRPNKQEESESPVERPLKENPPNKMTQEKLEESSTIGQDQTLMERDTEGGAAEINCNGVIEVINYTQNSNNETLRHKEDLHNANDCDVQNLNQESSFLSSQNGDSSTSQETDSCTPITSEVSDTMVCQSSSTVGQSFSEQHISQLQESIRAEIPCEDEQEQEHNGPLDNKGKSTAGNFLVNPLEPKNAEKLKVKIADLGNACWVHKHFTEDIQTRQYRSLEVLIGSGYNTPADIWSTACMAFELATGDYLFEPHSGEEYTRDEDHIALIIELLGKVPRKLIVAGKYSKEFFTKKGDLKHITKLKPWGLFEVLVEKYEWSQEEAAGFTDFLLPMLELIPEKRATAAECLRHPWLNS

[20] = target: YES1 (human) (UniProt P07947)
Chain of YES1 (human) (P07947 whole entry, looked up): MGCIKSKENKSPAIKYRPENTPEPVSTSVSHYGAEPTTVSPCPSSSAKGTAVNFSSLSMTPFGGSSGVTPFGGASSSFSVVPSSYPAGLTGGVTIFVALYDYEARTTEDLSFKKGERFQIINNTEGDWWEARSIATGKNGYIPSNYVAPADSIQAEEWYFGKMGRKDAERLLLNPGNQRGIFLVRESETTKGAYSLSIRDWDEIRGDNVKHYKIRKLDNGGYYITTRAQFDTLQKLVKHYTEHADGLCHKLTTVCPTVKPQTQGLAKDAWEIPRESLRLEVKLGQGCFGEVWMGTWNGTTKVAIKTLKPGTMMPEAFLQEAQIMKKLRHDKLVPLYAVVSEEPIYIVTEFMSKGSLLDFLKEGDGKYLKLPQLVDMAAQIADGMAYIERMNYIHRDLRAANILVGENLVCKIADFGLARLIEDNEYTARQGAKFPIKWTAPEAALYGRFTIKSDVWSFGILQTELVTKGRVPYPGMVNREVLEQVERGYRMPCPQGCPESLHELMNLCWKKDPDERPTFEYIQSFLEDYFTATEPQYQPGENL

Chain of CaMK1 (human) (Q14012 whole entry, looked up): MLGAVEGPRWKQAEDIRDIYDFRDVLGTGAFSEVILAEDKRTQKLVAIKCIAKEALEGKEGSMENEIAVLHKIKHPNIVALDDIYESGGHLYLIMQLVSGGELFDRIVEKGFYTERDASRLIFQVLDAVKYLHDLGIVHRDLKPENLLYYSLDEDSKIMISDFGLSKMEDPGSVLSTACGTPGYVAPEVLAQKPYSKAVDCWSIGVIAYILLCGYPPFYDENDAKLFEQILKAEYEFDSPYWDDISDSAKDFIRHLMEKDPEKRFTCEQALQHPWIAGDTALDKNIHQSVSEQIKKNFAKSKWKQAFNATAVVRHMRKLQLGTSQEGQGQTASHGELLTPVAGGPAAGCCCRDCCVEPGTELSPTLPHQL

residual activity ([1]; compound 0.01 µM): 129%
residual activity ([1]; compound 0.1 µM): 121%
residual activity ([2]; compound 0.01 µM): 108%
residual activity ([2]; compound 0.1 µM): 112%
residual activity ([2]; compound 1.0 µM): 117%
residual activity ([3]; compound 0.01 µM): 102%
residual activity ([3]; compound 0.1 µM): 107%
residual activity ([3]; compound 1.0 µM): 103%
residual activity ([4]; compound 0.01 µM): 109%
residual activity ([4]; compound 0.1 µM): 116%
residual activity ([4]; compound 1.0 µM): 101%
residual activity ([5]; compound 0.01 µM): 102%
residual activity ([5]; compound 0.1 µM): 105%
residual activity ([5]; compound 1.0 µM): 102%
residual activity ([6]; compound 0.01 µM): 111%
residual activity ([6]; compound 0.1 µM): 105%
residual activity ([6]; compound 1.0 µM): 106%
residual activity ([7]; compound 0.01 µM): 126%
residual activity ([7]; compound 0.1 µM): 115%
residual activity ([7]; compound 1.0 µM): 107%
residual activity ([8]; compound 0.01 µM): 105%
residual activity ([8]; compound 0.1 µM): 112%
residual activity ([8]; compound 1.0 µM): 98%
residual activity ([9]; compound 0.01 µM): 114%
residual activity ([9]; compound 0.1 µM): 97%
residual activity ([9]; compound 1.0 µM): 74%
residual activity ([10]; compound 0.01 µM): 101%
residual activity ([10]; compound 0.1 µM): 103%
residual activity ([10]; compound 1.0 µM): 102%
residual activity ([11]; compound 0.01 µM): 111%
residual activity ([11]; compound 0.1 µM): 111%
residual activity ([11]; compound 1.0 µM): 109%
residual activity ([12]; compound 0.01 µM): 93%
residual activity ([12]; compound 0.1 µM): 106%
residual activity ([12]; compound 1.0 µM): 94%
residual activity ([13]; compound 0.01 µM): 104%
residual activity ([13]; compound 0.1 µM): 111%
residual activity ([13]; compound 1.0 µM): 101%
residual activity ([14]; compound 0.01 µM): 113%
residual activity ([14]; compound 0.1 µM): 109%
residual activity ([14]; compound 1.0 µM): 114%
residual activity ([15]; compound 0.01 µM): 105%
residual activity ([15]; compound 0.1 µM): 119%
residual activity ([15]; compound 1.0 µM): 105%
residual activity ([16]; compound 0.01 µM): 97%
residual activity ([16]; compound 0.1 µM): 100%
residual activity ([16]; compound 1.0 µM): 97%
residual activity ([17]; compound 0.01 µM): 90%
residual activity ([17]; compound 0.1 µM): 102%
residual activity ([17]; compound 1.0 µM): 82%
residual activity ([18]; compound 0.01 µM): 101%
residual activity ([18]; compound 0.1 µM): 105%
residual activity ([18]; compound 1.0 µM): 97%
residual activity ([19]; compound 0.01 µM): 106%
residual activity ([19]; compound 0.1 µM): 120%
residual activity ([19]; compound 1.0 µM): 106%
residual activity ([20]; compound 0.01 µM): 122%
residual activity ([20]; compound 0.1 µM): 119%
residual activity ([20]; compound 1.0 µM): 101%
Structure (SMILES): CNc1nc(-c2ccc3c(N)n[nH]c3c2)cc(N2C[C@@H](C(=O)NC3CCCCC3)CC[C@H]2C)n1

From the kinase profiling compilation of Christmann-Franck et al. (2016)
